Test results reported in US8835644B2, “Broad spectrum benzothiophene-nitrothiazolide and other antimicrobials” (University of Virginia Patent Foundation, priority 2009, dated 2014).
In brackets after ≈: the same amount, converted by molar mass. Read-outs that look alike come from different tables or passages of the source.

Experiments:
S. epidermidis = assay: MIC testing by broth dilution, S. epidermidis plank; format: cell-based, Staphylococcus epidermidis
Method in brief: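 Compounds were diluted serially from 32 μg/ml to 0.06 in medium holding a standard inoculum, then visually scored at 24 h, and the lowest well without growth was recorded. Media were LB for E. coli, Trypticase Soy for S. epidermidis and Brain Heart Infusion for C. jejuni. C. difficile zones were measured anaerobically relative to NTZ.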

S. epidermidis biofilm = S. epidermidis biofilm assay (activity tables); format: cell-based, Staphylococcus epidermidis
Method in brief: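 Overnight TSB cultures diluted to OD600 0.01 and grown static with compound (triplicate) at 37° C for 16 h; turbidity recorded for growth. Biofilm: washed wells ethanol-fixed, stained with 0.5% crystal violet, A570 read before and after 95% ethanol extraction; mean ± SD.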

S. epidermidis 9142 = assay: Catheter adherence model; format: cell-based, Staphylococcus epidermidis; conditions: 24 h, dose dependent, within the IC50 range
Protocol: An overnight culture of S. epidermidis 9142 was used to inoculate fresh TSB medium to a final OD600 of 0.01 in a volume of 3 ml in 15 ml screw capped tubes. Sterile sheets of polyurethane were divided into 1 cm square pieces and placed into tubes containing different concentrations of NTZ or controls containing DMSO. The tubes were incubated for 24 h with shaking. Each catheter portion was washed 3 times with sterile PBS, suspended in 4 ml sterile PBS and sonicated for 10 min in a sonic water bath. 10 μl of the sonicated fluid was diluted in fresh PBS and plated onto TSA plates and incubated at 37° C. overnight. Bacteria were enumerated (triplicate plates) and the mean and standard deviation were determined and reported as CFU/ml. Viability effects were corrected for by plating the supernatants from the 3 ml experiment for total bacterial counts.

[1] = tested on: EAEC strains 042 and 17-2; assay: Growth and MIC of E. coli / EAEC strains in LB and MinA-G medium; format: cell-based; conditions: Escherichia coli; for MIC: static
Protocol: EAEC strains were grown overnight in MinA-G medium at 37° C. with shaking and used to inoculate fresh MinA-G medium containing a range of NTZ concentrations (0, 5, 10, 15, 20, and 25 μg/ml) to a starting OD600 of 0.1. Growth was recorded as the absorbance at 600 nm at 30-minute intervals over a period of eight hours. […] Motility was assessed in LB soft agar (0.3% agar) containing 0 to 25 μg/ml of NTZ. The diameter of outward spreading was measured daily and inhibition computed as percent of control.

EAEC strain 042 = assay: Quantitative biofilm assay, EAEC; format: cell-based, Escherichia coli
Protocol: A quantitative biofilm assay was used to determine the effect of NTZ on biofilm formation (41). Strain 042 was grown overnight at 37° C. with shaking and inoculated 1:100 in 200 μl culture medium in Costar 96-well, flat-bottom, polystyrene microtiter plates containing appropriate concentrations of NTZ. Plates were incubated statically at 37° C. in a humidified incubator. At 24 h, bacterial growth was measured by either transferring […] aliquots to another microtiter plate to determine turbidity or by diluting 100 μl aliquots 1:100 in 9.9 ml PBS for quantitative plate counts on LB medium. Bacterial counts in triplicate are reported as cfu/ml. Biofilm was visualized following staining with 0.5% crystal violet (41) and the absorbance was read at 570 nm using a microplate reader (Molecular Dynamics). All experiments were in triplicate and reported as mean and standard deviation.
Assays were initially performed with and without 25 μg/ml NTZ using five different growth media: DMEM, DMEM with 0.4% glucose, LB, LB with 0.4% glucose, and our chemically defined medium containing 1% glucose. E. coli DH5αt served as a negative control for biofilm formation. Assays were then run with increasing concentrations of NTZ (0, 5, 10, 15, 20, 25 μg/ml) both in the chemically defined medium and in DMEM with 0.4% glucose. […]

[2] = tested on: EAEC JM221 (Type 1 fimbriae); assay: Hemagglutination of guinea pig erythrocytes, EAEC JM221; format: cell-based, Escherichia coli; conditions: EAEC JM221 grown statically in LB 48 h with 20 μg/ml NTZ; note: key: +++ = strong hemagglutination reaction; + weak; − no hemagglutination
Protocol: HA assays were performed in 96-well microplates as described in (1). Bacteria grown over night without shaking (MinA-G medium with and without 25 μg/ml NTZ) were suspended in PBS and diluted to OD660 of […] was mixed with an equal volume of 3% (vol/vol) sheep erythrocyte suspension containing 1% mannose, except when type I fimbriae producing strains were assayed. In the latter, bacteria were grown statically in LB medium (with and without NTZ) for 48 h and HA was determined with guinea pig erythrocytes. HA reactions were incubated at 4° C. for […] HA was determined visually against controls receiving no NTZ. All assays were prepared in triplicate and repeated twice.

`CC(=O)Oc1ccccc1C(=O)Nc1ncc([N+](=O)[O-])s1` [Nitazoxanide, 2-(acetyloxy)-N-(5-nitro-2-thiazolyl)benzamide, reference compound] gave an MIC (S. epidermidis; Staphylococcus epidermidis, broth dilution, Trypticase Soy, 24 h, read-out: MIC (μM) S. epidermidis Plank) of 52.1 µM (≈ 16 µg/mL), an MIC (S. epidermidis; planktonic, 2-amino-3,5-dinitrothiophene analogues table, read-out: MIC S. epidermidis Plank) of 52.1 µM (≈ 16 µg/mL) and an MIC (S. epidermidis; planktonic, Thiophene analogues table, read-out: MIC S. epidermidis Plank) of 52.1 µM (≈ 16 µg/mL). The “MIC (μM) S. epidermidis Biofilm” value (S. epidermidis biofilm) was 32.5 µM (≈ 9.99 µg/mL), the “MIC S. epidermidis Biofilm” value (S. epidermidis biofilm; 2-amino-3,5-dinitrothiophene analogues table) was 32.5 µM (≈ 9.99 µg/mL) and the “MIC S. epidermidis Biofilm” value (S. epidermidis biofilm; Furan analogues table) was 32.5 µM (≈ 9.99 µg/mL). The “MIC S. epidermidis Biofilm” value (S. epidermidis biofilm; Thiophene analogues table) was 32.5 µM (≈ 9.99 µg/mL), the “Attachment to catheter material” value (S. epidermidis 9142) was “inhibited attachment” and the IC50 ([1]; 042AND172, read-out: Concentration for 50% inhibition of aerobic growth, EAEC 17-2, MinA-G, estimated) was 20 to 25 µg/mL. The IC50 ([1]; 042AND172, read-out: Concentration for 50% inhibition of aerobic growth, EAEC 042, MinA-G, estimated) was 15 to 20 µg/mL, the MIC ([1]; 042AND172, E. coli strains, rich LB medium, read-out: MIC in LB medium) was greater than 64 µg/mL and the MIC50 ([1]; 042AND172, EAEC strains, static conditions) was roughly 20 µg/mL. The MIC ([1]; 042AND172, minimal medium with glucose, read-out: MIC in MinA-G medium) was roughly 32 µg/mL, the “Inhibition of biofilm formation” value (EAEC strain 042; EAEC 042, MinA-G, 20 μg/ml) was “almost complete inhibition” and the IC50 (EAEC strain 042; Escherichia coli, EAEC 042, DMEM and MinA-G media, read-out: IC50 biofilm production) was roughly 12 µg/mL (≈ 39.1 µM). The “HA (guinea pig erythrocytes), bacterial OD660 0.5” value [2] was “−”, the “HA (guinea pig erythrocytes), bacterial OD660 1.0” value [2] was “−” and the “HA (guinea pig erythrocytes), bacterial OD660 1.5” value [2] was “+”.
